Experimental data from patent publication US9388224B2, “Compositions for preserving insulin-producing cells and insulin production and treating diabetes” (VANDERBILT UNIVERSITY, priority 2011, dated 2016).
Bridge positions count the residues as written; N and C are the ends. Ends that are not written are not given here. Peptide text beside a SMILES is read from it.

Key:
[1] = Anti-cSN50 peptide antibody induction (ELISA); assay type: in vivo, NOD mice; conditions: limit of detection 10 ng/mL
[2] = Continued peptide delivery in other disease models, toxicity; assay type: in vivo; conditions: up to 8 weeks, health, survival, weight gain, liver enzymes, blood cell counts normal
Description: Reduction or complete elimination of islet-destructive autoreactive T and B cells may be useful in treating T1D and potentially other autoimmune diseases. Other autoimmune disorders include Systemic Lupus Erythematosus, Multiple Sclerosis, Rheumatoid Arthritis, Crohn Diseases, and Ulcerative Collitis. Under conditions of metabolic, inflammatory, and oxidant stress, beta cell mass may be further controlled by important interactions between bone marrow-derived cells and islet beta cells. Transcriptional modulation of these interactions via targeting of the nuclear import machinery represents an important new opportunity for therapeutic development. Even though cSN50 can modulate nuclear transport of several stress-responsive transcription factors that utilize importin alpha 1/karyopherin alpha 5 (as well as other importins/karyopherins, e.g., importin alpha 5/karyopherin) for nuclear trafficking, intracellular delivery of the Nuclear Transport Modifier is rapid and restricted to the relatively short intracellular persistence of the injected cargo (Hawiger J., (1999) Current Opinion in Chem. Biology 3:89-94). Despite high intensity dosing of cSN50 in the protocols disclosed herein, short-term or long-term adverse effects were not observed. […] In preliminary studies, spontaneous disease was reversed in 40% of the NOD mice during a continuing NTM treatment for 3 weeks.

NOD mice = test: Toxicity observation and clinical chemistry in treated NOD mice
Description: ALT and BUN levels were determined on a VITROS 250 Chemistry analyzer using multi-layered vitros slides and colorimetric or enzyme rate tests as appropriate.
Ten week old female NOD mice received one dose of Cy (0.2 mg/g); after 45 h, intracellular peptide delivery was initiated with cSN50 (35 μg/g) or with control cN50 and continued every 2 h for 48 h. Serum was obtained daily from the saphenous vein and measurements of ALT (FIG. 8A) and BUN (FIG. 8B) were performed in 7 mice in each group.

[3] = test system: autoimmune diabetes in NOD mice; test: Autoimmune diabetes progression in cyclophosphamide-synchronized NOD mice (blood glucose); assay type: in vivo; conditions: general statement, experiments described herein
Description: NOD/LtJ, NOD-BDC2.5 and C57BL/6 mice were purchased from the Jackson Laboratories (Bar Harbor, Me.) at 6-8 weeks of age. All mice were housed and maintained according to the guidelines for use and care of laboratory animals as set forth by Vanderbilt University and regulated via the Vanderbilt IACUC. All NOD mice were monitored twice weekly for the development of diabetes by blood glucose measurement with FreeStyle® FastTake test strips (Abbott Laboratories, Abbott Park, Ill.). Two consecutive glucose measurements >220 mg/dl constituted a diagnosis of diabetes. A colony of NOD mice kept by a collaborating laboratory in the same animal suite has a spontaneous diabetes incidence of 80-90% in females by 30 weeks of age indicating an animal environment that is conducive for diabetes development.
At 10-11 weeks of age, female NOD mice received an intraperitoneal bolus injection of 200 mg/kg cyclophosphamide (Sigma). Cyclophosphamide was prepared by reconstitution of powder in sterile saline for injection.
45 h after diabetes synchronization with cyclophosphamide, treatment with cSN50 or control was initiated. Mice receiving cSN50 were given 35 μg/g of cSN50 i.p. every two hours for the next 48 h. Control mice received either saline or non-cell penetrating cN50 peptide at molar equivalent (20 μg/g). cN50 peptide, contains the cyclized NLS but lacks the membrane translocating motif. […]

[4] = In vivo intracellular peptide delivery to the pancreas (confocal microscopy); design: species or system NOD mice; conditions: single i.p. injection (0.7 mg FITC-labeled peptide/mouse or FITC of equivalent fluorescence); 2 h after injection
Description: Cell-penetrating peptide (cSN50, MW=3149; cSN50.1, MW=2986), and non-cell-penetrating peptide (cN50, MW=1651), were synthesized, purified, filter-sterilized, and analyzed as described elsewhere (Torgerson et al. (1998) J Immunol 161: 6084-6092; Liu et al. (2000) J Biol Chem 275: 16774-16778). To monitor the intracellular delivery of peptides to pancreas, cSN50 peptide was coupled with fluorescein isothiocyanate (FITC, Pierce) according to the manufacturer's protocol.
For in vivo detection of fluorescein-labeled peptides in the pancreas, NOD mice were sacrificed at 2 h after intraperitoneal (i.p.) injection of 0.7 mg of FITC-labeled cSN50 peptide/mouse. The pancreata were washed with saline and prepared for cryosections (10 μm thickness). Control solution of FITC alone with equivalent fluorescence units was injected separately to track distribution to the pancreas.
Intracellular delivery of a Nuclear Transport Modifier to the pancreas reduces islet inflammation (insulitis). […] It was first determined whether cSN50 would be delivered to the pancreas, the primary site of autoimmune attack against beta cells in pancreatic islets. […] Using confocal microscopy, the pancreatic delivery of FITC-labeled cSN50 peptide following a single intraperitoneal (i.p.) injection was assessed. […]

With `CSCC[C@@H]1NC(=O)[C@H](CC(C)C)NC(=O)[C@H](CCCCN)NC(=O)[C@H](CCC(N)=O)NC(=O)[C@H](CCCNC(=N)N)NC(=O)[C@H](CCCCN)NC(=O)[C@H](CCCNC(=N)N)NC(=O)[C@H](CCC(N)=O)NC(=O)[C@H](C(C)C)NC(=O)[C@H](Cc2ccc(O)cc2)NC(=O)[C@@H](NC(=O)[C@@H]2CCCN2C(=O)[C@H](C)NC(=O)[C@H](CC(C)C)NC(=O)[C@H](CC(C)C)NC(=O)[C@H](C)NC(=O)[C@H](CC(C)C)NC(=O)[C@H](CC(C)C)NC(=O)[C@@H](NC(=O)[C@H](C)NC(=O)[C@@H]2CCCN2C(=O)[C@H](CC(C)C)NC(=O)[C@H](CC(C)C)NC(=O)[C@H](C)NC(=O)[C@@H](NC(=O)[C@H](C)NC(=O)[C@H](C)N)C(C)C)C(C)C)CSSC[C@@H](C(=O)O)NC(=O)[C@@H]2CCCN2C1=O` [cSN50] (H-AAVALLPAVLLALLAPCYVQRKRQKLMPC-OH; disulfide 17-29; N-terminus and C-terminus assumed) the “anti-cSN50 peptide antibody induction” value [1] was “not detected”, the “toxicity on continued delivery” value [2] was “without evidence of toxicity” and the “overt signs of toxicity” value (NOD mice; 365 days of observation after 48 h treatment) was “did not display overt signs of toxicity”. For the same molecule, the acquired infection (NOD mice; after intensive treatment) was “no signs of acquired infection”, the weight gain (NOD mice; after intensive treatment) was “normal weight gain” and the BUN level (NOD mice; serum daily, 7 mice per group, vs cN50 control) was “not significantly different from control”. For the same molecule, the ALT level (NOD mice; serum daily, 7 mice per group, vs control) was “not significantly different from control” and the “alkaline phosphatase, creatinine, creatine kinase, and total bilirubin” value (NOD mice; serum, 7 mice per group) was “below the limit of detection”.
In the case of “AAVALLPAVLLALLAPCVQRKRQKLMPC (disulfide 17-28 (inferred)) [cSN50.1, cSN50 with the tyrosine at position 18 removed to increase solubility]”, the “islet protection from immune destruction” value [3] is reported as “effectively protected islets from immune destruction”.
For fluorescein isothiocyanate [FITC], the “delivery to / distribution in the pancreas” value [4] was “did not penetrate the organ”.
